From patent publication US9102670B2, “Pyrido-, pyrazo- and pyrimido-pyrimidine derivatives as mTOR inhibitors” (KuDOS Pharmaceuticals Limited, priority 2006, dated 2015) come the findings set out here.

Structures are written as SMILES.

The IC50 is the concentration needed to halve the response being measured.

In the first experiment the test system is phosphorylation of Serine 473 in Akt. As to the kind of experiment: In Vitro Phospho-Ser473 Akt Assay in MDA-MB-468 cells. Format: cell-based. Conditions: Homo sapiens, MDA-MB-468, read-out: IC50 values against mTOR, phospho-Ser473 Akt assay, MDA-MB-468 cells.
On to `C[C@H]1COCCN1c1nc(N2CCOC[C@@H]2C)c2ccc(-c3cccc(C(=O)NC4CCOCC4)c3)nc2n1` [Example 3i], for which the concentration for half-maximal inhibition (IC50) was below 100 nM.

Turning to `C[C@H]1COCCN1c1nc(N2CCOC[C@@H]2C)c2ccc(-c3cccc(C(=O)NCC(F)F)c3)nc2n1` [Example 3l], the IC50 is below 100 nM.

In the case of `CON(C)C(=O)c1cc(-c2ccc3c(N4CCOC[C@@H]4C)nc(N4CCOC[C@@H]4C)nc3n2)ccc1F` [Example 3y], the IC50 is below 100 nM.

Turning to `CNCc1ccc(-c2ccc3c(N4CCOC[C@@H]4C)nc(N4CCOC[C@@H]4C)nc3n2)cc1` [Example 4a], the IC50 was below 100 nM.

Regarding `COCCNCc1cc(-c2ccc3c(N4CCOC[C@@H]4C)nc(N4CCOC[C@@H]4C)nc3n2)ccc1F` [Example 4aa], the IC50 was below 300 nM.

In the case of `C[C@H]1COCCN1c1nc(N2CCOC[C@@H]2C)c2ccc(-c3ccc(F)c(CNCCO)c3)nc2n1` [Example 4ac], the IC50 was below 100 nM.

As for `C[C@H]1COCCN1c1nc(N2CCOC[C@@H]2C)c2ccc(-c3ccc(F)c(CN4CC[C@@H](O)C4)c3)nc2n1` [Example 4ad], the concentration for half-maximal inhibition (IC50) was below 300 nM.

Regarding `C[C@H]1COCCN1c1nc(N2CCOC[C@@H]2C)c2ccc(-c3ccc(F)c(CN(C)C)c3)nc2n1` [Example 4af], the half-inhibitory concentration (IC50) was below 100 nM.

In the case of `C[C@H]1COCCN1c1nc(N2CCOC[C@@H]2C)c2ccc(-c3ccc(F)c(CN4CCC[C@@H](O)C4)c3)nc2n1` [Example 4ah], the IC50 is below 300 nM.

As for `CC(C)N(C)Cc1cc(-c2ccc3c(N4CCOC[C@@H]4C)nc(N4CCOC[C@@H]4C)nc3n2)ccc1F` [Example 4ai], the IC50 was below 100 nM.

As for `C[C@H]1COCCN1c1nc(N2CCOC[C@@H]2C)c2ccc(-c3ccc(F)c(CN4CC[C@H](O)C4)c3)nc2n1` [Example 4ak], the IC50 is below 100 nM.

Take `COc1ccc(-c2ccc3c(N4CCOC[C@@H]4C)nc(N4CCOC[C@@H]4C)nc3n2)cc1CNC(C)C` [Example 4am]: the IC50 is below 100 nM.

Regarding `COc1ccc(-c2ccc3c(N4CCOC[C@@H]4C)nc(N4CCOC[C@@H]4C)nc3n2)cc1CNC1CCCC1` [Example 4an], the IC50 is below 300 nM.

As to `COc1ccc(-c2ccc3c(N4CCOC[C@@H]4C)nc(N4CCOC[C@@H]4C)nc3n2)cc1CNC1CCCCC1` [Example 4ao], the concentration for half-maximal inhibition (IC50) is below 100 nM.

For the molecule `COc1ccc(-c2ccc3c(N4CCOC[C@@H]4C)nc(N4CCOC[C@@H]4C)nc3n2)cc1CNCc1cccs1` [Example 4ap], the IC50 was below 300 nM.

Consider `COc1ccc(-c2ccc3c(N4CCOC[C@@H]4C)nc(N4CCOC[C@@H]4C)nc3n2)cc1CNC1CCOCC1` [Example 4aq], for which the IC50 was below 100 nM.

Turning to `COc1ccc(-c2ccc3c(N4CCOC[C@@H]4C)nc(N4CCOC[C@@H]4C)nc3n2)cc1CNCCC(C)(C)C` [Example 4as], the half-maximal inhibitory concentration (IC50) was below 100 nM.

Regarding `COc1ccc(-c2ccc3c(N4CCOC[C@@H]4C)nc(N4CCOC[C@@H]4C)nc3n2)cc1CNCCC(C)C` [Example 4at], the IC50 is below 100 nM.

With `COc1ccc(-c2ccc3c(N4CCOC[C@@H]4C)nc(N4CCOC[C@@H]4C)nc3n2)cc1CNC(C)CC(C)C` (stereo partly drawn) [Example 4au], the IC50 is below 100 nM.

Turning to `CCN(CC)CCCNCc1cc(-c2ccc3c(N4CCOC[C@@H]4C)nc(N4CCOC[C@@H]4C)nc3n2)ccc1OC` [Example 4av], the IC50 was below 300 nM.

With `COc1ccc(-c2ccc3c(N4CCOC[C@@H]4C)nc(N4CCOC[C@@H]4C)nc3n2)cc1CNC1CCCCC1C` (stereo partly drawn) [Example 4aw], the IC50 is below 100 nM.

Take `COc1ccc(-c2ccc3c(N4CCOC[C@@H]4C)nc(N4CCOC[C@@H]4C)nc3n2)cc1CNCC1CC1` [Example 4ax]: the half-maximal inhibitory concentration (IC50) is below 100 nM.

Regarding `CCCCNCc1cc(-c2ccc3c(N4CCOC[C@@H]4C)nc(N4CCOC[C@@H]4C)nc3n2)ccc1OC` [Example 4ay], the IC50 was below 100 nM.

With `COc1ccc(-c2ccc3c(N4CCOC[C@@H]4C)nc(N4CCOC[C@@H]4C)nc3n2)cc1CNCC(C)C` [Example 4az], the concentration for half-maximal inhibition (IC50) was below 100 nM.

On to `C[C@H]1COCCN1c1nc(N2CCOC[C@@H]2C)c2ccc(-c3ccc(CN)cc3)nc2n1` [Example 4b], for which the IC50 was below 100 nM.

As to `COc1ccc(-c2ccc3c(N4CCOC[C@@H]4C)nc(N4CCOC[C@@H]4C)nc3n2)cc1CNCCO` [Example 4ba], the IC50 was below 100 nM.

On to `COCCNCc1cc(-c2ccc3c(N4CCOC[C@@H]4C)nc(N4CCOC[C@@H]4C)nc3n2)ccc1OC` [Example 4bb], for which the IC50 was below 100 nM.

As to `COc1ccc(-c2ccc3c(N4CCOC[C@@H]4C)nc(N4CCOC[C@@H]4C)nc3n2)cc1CNC1CCC(C)CC1` (stereo partly drawn) [Example 4bc], the IC50 is below 100 nM.

In the case of `COc1ccc(CCNCc2cc(-c3ccc4c(N5CCOC[C@@H]5C)nc(N5CCOC[C@@H]5C)nc4n3)ccc2OC)cc1` [Example 4bd], the IC50 was below 100 nM.

Take `COc1ccc(-c2ccc3c(N4CCOC[C@@H]4C)nc(N4CCOC[C@@H]4C)nc3n2)cc1CNCCc1cnc[nH]1` [Example 4be]: the IC50 is below 100 nM.

For the molecule `COc1ccc(-c2ccc3c(N4CCOC[C@@H]4C)nc(N4CCOC[C@@H]4C)nc3n2)cc1CNC1CCCCCCC1` [Example 4bf], the concentration for half-maximal inhibition (IC50) was below 100 nM.

Consider `C[C@H]1COCCN1c1nc(N2CCOC[C@@H]2C)c2ccc(-c3ccc(CN4CC[C@@H](O)C4)cc3)nc2n1` [Example 4c], for which the IC50 was below 100 nM.

For the molecule `C[C@H]1COCCN1c1nc(N2CCOC[C@@H]2C)c2ccc(-c3ccc(CN4CC[C@H](O)C4)cc3)nc2n1` [Example 4d], the IC50 was below 100 nM.

As for `C[C@H]1COCCN1c1nc(N2CCOC[C@@H]2C)c2ccc(-c3ccc(CNC4CCOCC4)cc3)nc2n1` [Example 4e], the IC50 was below 100 nM.

As for `CCOCc1cccc(-c2ccc3c(N4CCOC[C@@H]4C)nc(N4CCOC[C@@H]4C)nc3n2)c1` [Example 4g], the IC50 was below 300 nM.

As for `C[C@H]1COCCN1c1nc(N2CCOC[C@@H]2C)c2ccc(-c3cccc(CNCCO)c3)nc2n1` [Example 4h], the IC50 is below 100 nM.

Take `C[C@H]1COCCN1c1nc(N2CCOC[C@@H]2C)c2ccc(-c3cccc(CN)c3)nc2n1` [Example 4i]: the IC50 is below 100 nM.

For `C[C@H]1COCCN1c1nc(N2CCOC[C@@H]2C)c2ccc(-c3cccc(CNC4CC4)c3)nc2n1` [Example 4j], the IC50 was below 100 nM.

Consider `CC(C)NCc1cccc(-c2ccc3c(N4CCOC[C@@H]4C)nc(N4CCOC[C@@H]4C)nc3n2)c1` [Example 4k], for which the IC50 was below 100 nM.

As for `CNCc1cccc(-c2ccc3c(N4CCOC[C@@H]4C)nc(N4CCOC[C@@H]4C)nc3n2)c1` [Example 4l], the IC50 was below 100 nM.

`C[C@H]1COCCN1c1nc(N2CCOC[C@@H]2C)c2ccc(-c3cccc(CNC4CCOCC4)c3)nc2n1` [Example 4m]: the IC50 was below 100 nM.

Regarding `C[C@H]1COCCN1c1nc(N2CCOC[C@@H]2C)c2ccc(-c3cccc(CNCC4CC4)c3)nc2n1` [Example 4n], the concentration for half-maximal inhibition (IC50) is below 100 nM.

As for `COCCNCc1cccc(-c2ccc3c(N4CCOC[C@@H]4C)nc(N4CCOC[C@@H]4C)nc3n2)c1` [Example 4o], the half-inhibitory concentration (IC50) was below 100 nM.

As to `C[C@H]1COCCN1c1nc(N2CCOC[C@@H]2C)c2ccc(-c3cccc(CNc4cc[nH]n4)c3)nc2n1` [Example 4p], the IC50 was below 300 nM.

For the molecule `C[C@H]1COCCN1c1nc(N2CCOC[C@@H]2C)c2ccc(-c3cccc(Cn4ccnc4)c3)nc2n1` [Example 4q], the IC50 was below 300 nM.

Consider `C[C@H]1COCCN1c1nc(N2CCOC[C@@H]2C)c2ccc(-c3cccc(CN4CC[C@@H](O)C4)c3)nc2n1` [Example 4r], for which the half-maximal inhibitory concentration (IC50) is below 100 nM.

For `C[C@H]1COCCN1c1nc(N2CCOC[C@@H]2C)c2ccc(-c3cccc(CN4CC[C@H](O)C4)c3)nc2n1` [Example 4s], the IC50 was below 100 nM.

Turning to `C[C@H]1COCCN1c1nc(N2CCOC[C@@H]2C)c2ccc(-c3ccc(F)c(CN)c3)nc2n1` [Example 4u], the IC50 is below 100 nM.

`CC(C)NCc1cc(-c2ccc3c(N4CCOC[C@@H]4C)nc(N4CCOC[C@@H]4C)nc3n2)ccc1F` [Example 4w]: the IC50 is below 100 nM.

In the case of `CNCc1cc(-c2ccc3c(N4CCOC[C@@H]4C)nc(N4CCOC[C@@H]4C)nc3n2)ccc1F` [Example 4x], the IC50 is below 100 nM.

Regarding `C[C@H]1COCCN1c1nc(N2CCOC[C@@H]2C)c2ccc(-c3ccc(F)c(CNC4CCOCC4)c3)nc2n1` [Example 4y], the IC50 was below 100 nM.

Regarding `C[C@H]1COCCN1c1nc(N2CCOC[C@@H]2C)c2ccc(-c3ccc(F)c(CNCC4CC4)c3)nc2n1` [Example 4z], the IC50 is below 100 nM.

Consider `CC(=O)NCc1cccc(-c2ccc3c(N4CCOC[C@@H]4C)nc(N4CCOC[C@@H]4C)nc3n2)c1` [Example 5a], for which the half-inhibitory concentration (IC50) is below 100 nM.

Consider `COCC(=O)NCc1cccc(-c2ccc3c(N4CCOC[C@@H]4C)nc(N4CCOC[C@@H]4C)nc3n2)c1` [Example 5b], for which the IC50 was below 300 nM.

Regarding `C[C@H]1COCCN1c1nc(N2CCOC[C@@H]2C)c2ccc(-c3cccc(CNC(=O)C4CC4)c3)nc2n1` [Example 5c], the IC50 is below 300 nM.

In the case of `C[C@H]1COCCN1c1nc(N2CCOC[C@@H]2C)c2ccc(-c3cccc(CNC(=O)C4CCC4)c3)nc2n1` [Example 5e], the 50% inhibitory concentration (IC50) is below 300 nM.

Still in this experiment, the particulars now being: Homo sapiens, MDA-MB-468, read-out: IC50 values against mTOR, phospho-Ser473 Akt assay, MDA-MB-468 cells, upper bound.
For `C[C@H]1COCCN1c1nc(N2CCOC[C@@H]2C)c2ccc(-c3cccc(C(=O)N4CC[C@@H](O)C4)c3)nc2n1` [Example 3g], the IC50 was below 1000 nM.

For the molecule `CCN(C)C(=O)c1cc(-c2ccc3c(N4CCOC[C@@H]4C)nc(N4CCOC[C@@H]4C)nc3n2)ccc1OC` [Example 3u], the IC50 is below 1000 nM.

With `C[C@H]1COCCN1c1nc(N2CCOC[C@@H]2C)c2ccc(-c3ccc(F)c(CNCCF)c3)nc2n1` [Example 4ab], the IC50 is below 1000 nM.

As for `COCCN(C)Cc1cc(-c2ccc3c(N4CCOC[C@@H]4C)nc(N4CCOC[C@@H]4C)nc3n2)ccc1F` [Example 4aj], the IC50 was below 1000 nM.

As for `C[C@H]1COCCN1c1nc(N2CCOC[C@@H]2C)c2ccc(-c3cccc(CS(C)(=O)=O)c3)nc2n1` [Example 4t], the IC50 was below 1000 nM.

Consider `C[C@H]1COCCN1c1nc(N2CCOC[C@@H]2C)c2ccc(-c3ccc(F)c(CNC4CC4)c3)nc2n1` [Example 4v], for which the IC50 was below 1000 nM.

`CC(C)C(=O)NCc1cccc(-c2ccc3c(N4CCOC[C@@H]4C)nc(N4CCOC[C@@H]4C)nc3n2)c1` [Example 5d]: the IC50 was below 1000 nM.
